Results published in patent publication US7655392B2, “Quenching methods for red blood cell inactivation process” (priority 2004, dated 2010).
Marks after values point to notes of the source that are not given here.

Test system: red blood cells
Assay: Gel card agglutination with rabbit anti-acridine sera
Assay type: cell-based
Description: The reduction in modification of red blood cells in the methods of the present invention can be evaluated by several assays. In one assay, rabbit polyclonal sera that is reactive with acridine is produced by injecting New Zealand White rabbits with an acridine compound conjugated to KLH.
This is conjugated to KLH by adding 10 μL of the compound (10 mM in de-ionized water) to 990 μL of a buffered solution of KLH (10 mg/mL in 50 mM Phosphate, 150 mM NaCl, PBS pH=7.2 with proprietary stabilizer, Pierce Cat # 77600) and incubating at room temperature for over 20 hours. Following this incubaton, the conjugated KLH is isolated from the unreacted S-197 and S-197 by-products by passing through a desalting column (e.g. D-salt columns, Pierce) and eluting in PBS buffer. The colored fractions of the solutions are then combined and the KLH conjugates are characterized by the ratio of absorbance at 210 and 410 nm. The acridine-KLH conjugate solutions are mixed with Complete Freund's Adjuvant for intramuscular injection into the rabbits at multiple sites to immunize the rabbits. […] The resulting solution can be assayed for agglutination by passing through a Buffer Gel Card (Micro Typing Systems, Pompano Beach, Fla.). The gel cards are designed to allow non-agglutinated red blood cells to pass through, while cells agglutinated by reaction with the rabbit sera and cross reacting with the anti-rabbit antibody will remain at the top of the gel. The cards are scored as 0, 1+, 2+, 3+, or 4+, where 0 indicates all cells are intact and are at the bottom of the gel, while 4+ indicates complete agglutination, with all cells at the top of the gel.
In these, the appropriate amount of 600 mM stock was added, mixed with an appropriate volume of 8% dextrose to provide the same volume addition to each RBC sample where in one study, with varied glutathione concentrations, the pH was measured after adding glutathione and after adding PIC-1. […] Similar samples were also assessed for the inactivation of S. epidermidis. […] For gel card analysis, after incubation, the RBC were washed in BBS and were diluted in BBS to a final hematocrit of 4%. A 25 μL aliquot of each was mixed with 15 μL of rabbit polyclonal anti-acridine sera diluted either 1:4 or 1:100 in BBS and the mixture was incubated at 37° C. for 30 minutes. The cells were subsequently washed with 1.5 mL BBS. […]
Heterophile antibodies are naturally occurring antibodies that recognize RBC from another species in a non-specific fashion. […] All samples were mixed with quencher first, then PIC-1 at 0.2 mM.
The standard condition was included, i.e. 0.2 mM PIC-1 and 2 mM acidic glutathione added together.

Measured: Gel card score

O=C(CCNc1c2ccccc2nc2ccccc12)OCCN(CCCl)CCCl [PIC-1]
4: Table 12: 2 mM acidic GSH, 0.2 mM PIC-1, sera 1:100, secondary Ab 1:4 | Table 13: 15 mM GSH 2eq/5 mM Cys 1eq, 0.2 mM PIC-1, blood sample 1, sera 1:4 | Table 13: 15 mM GSH 2eq/5 mM Cys 2eq, 0.2 mM PIC-1, blood sample 1, sera 1:4 | Table 13: 20 mM GSH 2eq, 0.2 mM PIC-1, blood sample 1, sera 1:4 | Table 13: 20 mM GSH 2eq, 0.2 mM PIC-1, blood sample 2, sera 1:4 | Table 14: 5 mM CysGly 1 eq. base, 0.2 mM PIC-1, 1:4 dilution of serum | Table 14: 5 mM CysGly, 0.2 mM PIC-1, 1:4 dilution of serum | Table 14: 10 mM CysGly, 0.2 mM PIC-1, 1:4 dilution of serum | Table 14: […] CysGly 1 eq. base, 0.2 mM PIC-1, 1:4 dilution of serum | Table 14: […] CysGly 1 eq. base, 0.2 mM PIC-1, 1:100 dilution of serum | Table 14: […] CysGly, 0.2 mM PIC-1, 1:4 dilution of serum
4+: Table 11A samples, rabbit sera 1:4, all samples | Table 11B: 2 mM GSH, 1 eq. base, 0.2 mM PIC-1, sera 1:100, secondary 1:4 | Table 12: 2 mM acidic GSH, 0.2 mM PIC-1, sera 1:4, secondary Ab 1:4 | Table 12: 5 mM Cys 1eq, 0.2 mM PIC-1, sera 1:4, secondary Ab 1:4 | Table 12: […] Cys 1eq, 0.2 mM PIC-1, sera 1:4, secondary Ab 1:4 | Table 13: 0.2 mM PIC-1 no quencher, blood sample 1, sera 1:4 | Table 13: 0.2 mM PIC-1 no quencher, blood sample 1, sera 1:100 | Table 13: 0.2 mM PIC-1 no quencher, blood sample 2, sera 1:4 | Table 13: 0.2 mM PIC-1 no quencher, blood sample 2, sera 1:100 | Table 13: 2 mM acidic GSH, 0.2 mM PIC-1, blood sample 1, sera 1:4 | Table 13: 2 mM acidic GSH, 0.2 mM PIC-1, blood sample 1, sera 1:100 | Table 13: 2 mM acidic GSH, 0.2 mM PIC-1, blood sample 2, sera 1:4 | Table 13: 2 mM acidic GSH, 0.2 mM PIC-1, blood sample 2, sera 1:100 | another study, rabbit sera 1:4: 10 mM neutralized (2 eq.) glutathione, 0.2 mM PIC-1 | another study, rabbit sera 1:4: standard condition
0: Table 11B: 20 mM GSH, 2 eq. base, 0.2 mM PIC-1, sera 1:100, secondary 1:4 | Table 12: 2 mM acidic GSH, 0.2 mM PIC-1, sera 1:100, no secondary Ab | Table 12: 5 mM Cys 1eq, 0.2 mM PIC-1, sera 1:100, no secondary Ab | Table 12: 10 mM Cys 1eq, 0.2 mM PIC-1, sera 1:4, no secondary Ab | Table 12: 10 mM Cys 1eq, 0.2 mM PIC-1, sera 1:100, no secondary Ab | Table 12: 10 mM Cys 1eq, 0.2 mM PIC-1, sera 1:100, secondary Ab 1:4 | Table 12: 15 mM Cys 1eq, 0.2 mM PIC-1, sera 1:4, no secondary Ab | Table 12: 15 mM Cys 1eq, 0.2 mM PIC-1, sera 1:100, no secondary Ab | Table 12: 15 mM Cys 1eq, 0.2 mM PIC-1, sera 1:100, secondary Ab 1:4 | Table 12: 20 mM Cys 1eq, 0.2 mM PIC-1, sera 1:4, no secondary Ab | Table 12: 20 mM Cys 1eq, 0.2 mM PIC-1, sera 1:4, secondary Ab 1:4 | Table 12: 20 mM Cys 1eq, 0.2 mM PIC-1, sera 1:100, no secondary Ab | Table 12: 20 mM Cys 1eq, 0.2 mM PIC-1, sera 1:100, secondary Ab 1:4 | Table 12: 20 mM GSH 2eq, 0.2 mM PIC-1, sera 1:4, no secondary Ab | Table 12: 20 mM GSH 2eq, 0.2 mM PIC-1, sera 1:100, no secondary Ab | Table 12: 20 mM GSH 2eq, 0.2 mM PIC-1, sera 1:100, secondary Ab 1:4 | Table 12: […] Cys 1eq, 0.2 mM PIC-1, sera 1:100, no secondary Ab | Table 13: 5 mM GSH 2eq/15 mM Cys 1eq, 0.2 mM PIC-1, blood sample 1, sera 1:100 | Table 13: 5 mM GSH 2eq/15 mM Cys 1eq, 0.2 mM PIC-1, blood sample 2, sera 1:100 | Table 13: 5 mM GSH 2eq/15 mM Cys 2eq, 0.2 mM PIC-1, blood sample 1, sera 1:100 | Table 13: 5 mM GSH 2eq/15 mM Cys 2eq, 0.2 mM PIC-1, blood sample 2, sera 1:100 | Table 13: 10 mM GSH 2eq/10 mM Cys 1eq, 0.2 mM PIC-1, blood sample 1, sera 1:100 | Table 13: 10 mM GSH 2eq/10 mM Cys 1eq, 0.2 mM PIC-1, blood sample 2, sera 1:100 | Table 13: 10 mM GSH 2eq/10 mM Cys 2eq, 0.2 mM PIC-1, blood sample 1, sera 1:100 | Table 13: 10 mM GSH 2eq/10 mM Cys 2eq, 0.2 mM PIC-1, blood sample 2, sera 1:100 | Table 13: 15 mM GSH 2eq/5 mM Cys 1eq, 0.2 mM PIC-1, blood sample 1, sera 1:100 | Table 13: 15 mM GSH 2eq/5 mM Cys 1eq, 0.2 mM PIC-1, blood sample 2, sera 1:100 | Table 13: 15 mM GSH 2eq/5 mM Cys 2eq, 0.2 mM PIC-1, blood sample 1, sera 1:100 | Table 13: 15 mM GSH 2eq/5 mM Cys 2eq, 0.2 mM PIC-1, blood sample 2, sera 1:100 | Table 13: 20 mM Cys 1eq, 0.2 mM PIC-1, blood sample 1, sera 1:4 | Table 13: 20 mM Cys 1eq, 0.2 mM PIC-1, blood sample 1, sera 1:100 | Table 13: 20 mM Cys 1eq, 0.2 mM PIC-1, blood sample 2, sera 1:100 | Table 13: 20 mM Cys 2eq, 0.2 mM PIC-1, blood sample 1, sera 1:4 | Table 13: 20 mM Cys 2eq, 0.2 mM PIC-1, blood sample 1, sera 1:100 | Table 13: 20 mM Cys 2eq, 0.2 mM PIC-1, blood sample 2, sera 1:100 | Table 13: 20 mM GSH 2eq, 0.2 mM PIC-1, blood sample 1, sera 1:100 | Table 13: 20 mM GSH 2eq, 0.2 mM PIC-1, blood sample 2, sera 1:100 | Table 14: 5 mM CysGly, 0.2 mM PIC-1, 1:100 dilution of serum | Table 14: 10 mM CysGly, 0.2 mM PIC-1, 1:100 dilution of serum | another study, rabbit sera 1:100: 10, 15, 20 mM neutralized glutathione, all samples
1*: Table 12: 5 mM Cys 1eq, 0.2 mM PIC-1, sera 1:100, secondary Ab 1:4 | Table 12: 15 mM Cys 1eq, 0.2 mM PIC-1, sera 1:4, secondary Ab 1:4
3: Table 12: […] Cys 1eq, 0.2 mM PIC-1, sera 1:100, secondary Ab 1:4 | Table 13: 5 mM GSH 2eq/15 mM Cys 1eq, 0.2 mM PIC-1, blood sample 2, sera 1:4 | Table 13: 10 mM GSH 2eq/10 mM Cys 1eq, 0.2 mM PIC-1, blood sample 1, sera 1:4 | Table 13: 10 mM GSH 2eq/10 mM Cys 1eq, 0.2 mM PIC-1, blood sample 2, sera 1:4 | Table 13: 15 mM GSH 2eq/5 mM Cys 1eq, 0.2 mM PIC-1, blood sample 2, sera 1:4 | Table 13: 15 mM GSH 2eq/5 mM Cys 2eq, 0.2 mM PIC-1, blood sample 2, sera 1:4 | Table 13: 20 mM Cys 1eq, 0.2 mM PIC-1, blood sample 2, sera 1:4 | Table 14: […] CysGly, 0.2 mM PIC-1, 1:100 dilution of serum
2+: Table 11B: 5 mM GSH, 2 eq. base, 0.2 mM PIC-1, sera 1:100, secondary 1:4 | Table 11B: 10 mM GSH, 1 eq. base, 0.2 mM PIC-1, sera 1:100, secondary 1:4 | Table 12: […] Cys 1eq, 0.2 mM PIC-1, sera 1:4, no secondary Ab
2: Table 13: 5 mM GSH 2eq/15 mM Cys 1eq, 0.2 mM PIC-1, blood sample 1, sera 1:4 | Table 13: 10 mM GSH 2eq/10 mM Cys 2eq, 0.2 mM PIC-1, blood sample 1, sera 1:4 | Table 13: 10 mM GSH 2eq/10 mM Cys 2eq, 0.2 mM PIC-1, blood sample 2, sera 1:4 | Table 14: 5 mM CysGly 1 eq. base, 0.2 mM PIC-1, 1:100 dilution of serum
3+: Table 11B: 2 mM GSH, 2 eq. base, 0.2 mM PIC-1, sera 1:100, secondary 1:4 | Table 11B: 2 mM GSH, no added base, 0.2 mM PIC-1, sera 1:100, secondary 1:4 | Table 11B: 5 mM GSH, 1 eq. base, 0.2 mM PIC-1, sera 1:100, secondary 1:4 | Table 11B: 20 mM GSH, no added base, 0.2 mM PIC-1, sera 1:100, secondary 1:4 | Table 12: 2 mM acidic GSH, 0.2 mM PIC-1, sera 1:4, no secondary Ab | Table 12: 10 mM Cys 1eq, 0.2 mM PIC-1, sera 1:4, secondary Ab 1:4 | Table 12: 20 mM GSH 2eq, 0.2 mM PIC-1, sera 1:4, secondary Ab 1:4 | another study, rabbit sera 1:4: 15 mM neutralized (2 eq.) glutathione, 0.2 mM PIC-1
1+: Table 11B: 10 mM GSH, 2 eq. base, 0.2 mM PIC-1, sera 1:100, secondary 1:4 | Table 11B: 20 mM GSH, 1 eq. base, 0.2 mM PIC-1, sera 1:100, secondary 1:4 | Table 12: 5 mM Cys 1eq, 0.2 mM PIC-1, sera 1:4, no secondary Ab | another study, rabbit sera 1:4: 20 mM neutralized (2 eq.) glutathione, 0.2 mM PIC-1
3+/MX*: Table 11B: 5 mM GSH, no added base, 0.2 mM PIC-1, sera 1:100, secondary 1:4 | Table 11B: 10 mM GSH, no added base, 0.2 mM PIC-1, sera 1:100, secondary 1:4
1: Table 13: 5 mM GSH 2eq/15 mM Cys 2eq, 0.2 mM PIC-1, blood sample 1, sera 1:4 | Table 13: 5 mM GSH 2eq/15 mM Cys 2eq, 0.2 mM PIC-1, blood sample 2, sera 1:4 | Table 13: 20 mM Cys 2eq, 0.2 mM PIC-1, blood sample 2, sera 1:4
